Assay results published in US4820694A, “Modifications of 3-O-demethylmycinose in macrocin and lactenocin” (priority 1986, dated 1989).
≈ marks a conversion by molar mass, not a printed value. Like-named read-outs stand apart in the source and are kept apart here.

Legend:
[1] = test system: Streptococcus pneumoniae Park I; assay: microbe, parasite or virus in culture; type: cell-based; conditions: Streptococcus pneumoniae
Procedure: (§1) The MIC's in Table III were determined by standard agar-dilution assays. The MIC's in Table IV were obtained using conventional brothdilution microtiter tests.

[2] = test system: Staphylococcus aureus S13E; assay: microbe, parasite or virus in culture; type: cell-based; conditions: Staphylococcus aureus, S13E
Procedure: as §1

[3] = test system: Streptococcus pyogenes C203; assay: protection of mice experimentally infected with S. pyogenes C203; type: in vivo
Procedure: The formula 1 compounds have shown in vivo antimicrobial activity against experimentally-induced infections in laboratory animals. When two doses of test compound were administered to mice experimentally infected with S. pyrogenes C203, the activity observed was measured as an ED50 value [effective dose in mg/kg to protect 50% of the test animals: see Warren Wick, et al., J. Bacteriol. 81, 233-235 (1961)].
^a mg/kg × 2; doses given 1 and 4 hours postinfection

[4] = test system: Streptococcus pyogenes C203; assay: standard agar-dilution MIC assay; type: cell-based; conditions: Streptococcus pyogenes, C203
Procedure: as §1

[5] = test system: Haemophilus influenzae 76; assay: standard agar-dilution MIC assay; type: cell-based; conditions: Haemophilus influenzae, 76
Procedure: as §1

[6] = test system: Pseudomonas aeruginosa X239; assay: standard agar-dilution MIC assay; type: cell-based; conditions: Pseudomonas aeruginosa, X239
Procedure: as §1

[7] = test system: Streptococcus Group D 9960; assay: standard agar-dilution MIC assay; type: cell-based; conditions: GROUPD9960, read-out: MIC
Procedure: as §1

[8] = test system: Klebsiella pneumoniae X68; assay: standard agar-dilution MIC assay; type: cell-based; conditions: Klebsiella pneumoniae, X68
Procedure: as §1

[9] = test system: Haemophilus influenzae C.L.; assay: standard agar-dilution MIC assay; type: cell-based; conditions: Haemophilus influenzae
Procedure: as §1

[10] = test system: Staphylococcus epidermidis EPI1; assay: standard agar-dilution MIC assay; type: cell-based; conditions: Staphylococcus epidermidis, EPI1
Procedure: as §1

[11] = test system: Staphylococcus aureus X400; assay: standard agar-dilution MIC assay; type: cell-based; conditions: Staphylococcus aureus, X400
Procedure: as §1

[12] = test system: Staphylococcus aureus V41; assay: standard agar-dilution MIC assay; type: cell-based; conditions: Staphylococcus aureus, V41
Procedure: as §1

[13] = test system: Staphylococcus aureus X1.1; assay: standard agar-dilution MIC assay; type: cell-based; conditions: Staphylococcus aureus, X1.1
Procedure: as §1

Escherichia coli EC14 = assay: standard agar-dilution MIC assay; type: cell-based
Procedure: as §1

[14] = test system: Streptococcus Group D X66; assay: standard agar-dilution MIC assay; type: cell-based; conditions: read-out: MIC
Procedure: as §1

Mycoplasma hyorhinis 29E = assay: broth-dilution microtiter MIC test; type: cell-based; conditions: Mycoplasma, 29E
Procedure: as §1

[15] = test system: Pasteurella multocida 60A; assay: broth-dilution microtiter MIC test; type: cell-based; conditions: Pasteurella multocida, 60A
Procedure: as §1

[16] = test system: Mycoplasma gallisepticum 29C; assay: broth-dilution microtiter MIC test; type: cell-based; conditions: Mycoplasmoides gallisepticum, 29C
Procedure: as §1

[17] = test system: Staphylococcus aureus 19C; assay: broth-dilution microtiter MIC test; type: cell-based; conditions: Staphylococcus aureus, 19C
Procedure: as §1

[18] = test system: Pasteurella multocida 40G; assay: broth-dilution microtiter MIC test; type: cell-based; conditions: Pasteurella multocida, 40G
Procedure: as §1

[19] = test system: Pasteurella multocida 68C; assay: broth-dilution microtiter MIC test; type: cell-based; conditions: Pasteurella multocida, 68C
Procedure: as §1

[20] = test system: Pasteurella hemolytica 41D; assay: broth-dilution microtiter MIC test; type: cell-based; conditions: Pasteurella, 41D
Procedure: as §1

Mycoplasma synoviae 40A = assay: broth-dilution microtiter MIC test; type: cell-based; conditions: Mycoplasmopsis synoviae, 40A
Procedure: as §1

[21] = test system: Mycoplasma gallisepticum 15E; assay: broth-dilution microtiter MIC test; type: cell-based; conditions: Mycoplasmoides gallisepticum, 15E
Procedure: as §1

[22] = test system: Pasteurella hemolytica 22C; assay: broth-dilution microtiter MIC test; type: cell-based; conditions: Pasteurella, 22C
Procedure: as §1

[23] = test system: Pasteurella multocida 22A; assay: broth-dilution microtiter MIC test; type: cell-based; conditions: Pasteurella multocida, 22A
Procedure: as §1

[24] = test system: Pasteurella multocida 17E; assay: broth-dilution microtiter MIC test; type: cell-based; conditions: Pasteurella multocida, 17E
Procedure: as §1

[25] = test system: Mycoplasma gallisepticum 36H; assay: broth-dilution microtiter MIC test; type: cell-based; conditions: Mycoplasmoides gallisepticum, 36H
Procedure: as §1

[26] = test system: Bordetella bronchiseptica; assay: broth-dilution microtiter MIC test; type: cell-based; conditions: Bordetella bronchiseptica
Procedure: as §1

Streptococcus sp. 19F = assay: broth-dilution microtiter MIC test; type: cell-based; conditions: Streptococcus, SP.19F
Procedure: as §1

[27] = test system: Pasteurella hemolytica 23C; assay: broth-dilution microtiter MIC test; type: cell-based; conditions: Pasteurella, 23C
Procedure: as §1

Compound	MIC [1] [µg/mL]	MIC [2] [µg/mL]	MIC [4] [µg/mL]	MIC [5] [µg/mL]	MIC [7] [µg/mL]	MIC [9] [µg/mL]	MIC [10] [µg/mL]	MIC [11] [µg/mL]	MIC [12] [µg/mL]	MIC [13] [µg/mL]	MIC [14] [µg/mL]	MIC (Mycoplasma hyorhinis 29E) [µg/mL]	MIC [15] [µg/mL]	MIC [16] [µg/mL]	MIC [17] [µg/mL]	MIC [18] [µg/mL]	MIC [19] [µg/mL]	MIC [20] [µg/mL]	MIC (Mycoplasma synoviae 40A) [µg/mL]	MIC [21] [µg/mL]	other results
CCC1OC(=O)CC(O)C(C)C(OC2OC(C)C(OC3CC(C)(O)C(O)C(C)O3)C(N(C)C)C2O)C(CC=O)CC(C)C(=O)C=CC(C)=CC1COC1OC(C)C(OC(=O)Cc2ccccc2)C(O)C1OC (centres unmarked) [Compound 10, 4'"-O-Phenylacetyl-macrocin]	0.25 (≈ 0.245 µM)	1 (≈ 0.98 µM)	0.5 (≈ 0.49 µM)	16 (≈ 15.7 µM)	1 (≈ 0.98 µM)	32 (≈ 31.4 µM)	1 (≈ 0.98 µM)	2 (≈ 1.96 µM)	1 (≈ 0.98 µM)	1 (≈ 0.98 µM)	1 (≈ 0.98 µM)	3.12 (≈ 3.06 µM)	> 50	0.39 (≈ 0.382 µM)	1.56 (≈ 1.53 µM)	> 50	50 (≈ 49 µM)	> 50	1.56 (≈ 1.53 µM)	12.5 (≈ 12.3 µM)	ED50 ([3]; C203, po): 38.8 mg/kg; ED50 ([3]; C203, sc): 1.9 mg/kg; MIC [6]: > 128 µg/mL; MIC [8]: > 128 µg/mL; MIC (Escherichia coli EC14): > 128 µg/mL; MIC [22]: > 50 µg/mL; MIC [23]: > 50 µg/mL; MIC [24]: 50 µg/mL (≈ 49 µM); MIC [25]: 12.5 µg/mL (≈ 12.3 µM); MIC [26]: > 50 µg/mL; MIC (Streptococcus sp. 19F): 0.78 µg/mL (≈ 0.765 µM); MIC [27]: > 50 µg/mL
CCC1OC(=O)CC(O)C(C)C(OC2OC(C)C(O)C(N(C)C)C2OC(C)=O)C(CC=O)CC(C)C(=O)C=CC(C)=CC1COC1OC(C)C(OC(=O)CC(C)C)C(O)C1OC (centres unmarked) [Compound 25, 2'-O-Acetyl-4"-O-isovaleryl-lactenocin]	0.5 (≈ 0.566 µM)	2 (≈ 2.26 µM)	2 (≈ 2.26 µM)	16 (≈ 18.1 µM)	2 (≈ 2.26 µM)	32 (≈ 36.2 µM)	2 (≈ 2.26 µM)	2 (≈ 2.26 µM)	2 (≈ 2.26 µM)	2 (≈ 2.26 µM)	2 (≈ 2.26 µM)	1.56 (≈ 1.76 µM)	25 (≈ 28.3 µM)	0.39 (≈ 0.441 µM)	6.25 (≈ 7.07 µM)	25 (≈ 28.3 µM)	25 (≈ 28.3 µM)	25 (≈ 28.3 µM)	3.12 (≈ 3.53 µM)	50 (≈ 56.6 µM)	MIC ([6]; agar-dilution, read-out: MIC): > 128 µg/mL; MIC ([8]; agar-dilution, read-out: MIC): > 128 µg/mL; MIC (Escherichia coli EC14; agar-dilution, read-out: MIC): > 128 µg/mL; MIC [22]: 50 µg/mL (≈ 56.6 µM); MIC [23]: 25 µg/mL (≈ 28.3 µM); MIC [24]: 25 µg/mL (≈ 28.3 µM); MIC [25]: 25 µg/mL (≈ 28.3 µM); MIC ([26]; broth-dilution microtiter, read-out: MIC): > 50 µg/mL; MIC (Streptococcus sp. 19F): 1.56 µg/mL (≈ 1.76 µM); MIC [27]: 25 µg/mL (≈ 28.3 µM)
